Assay results published in PubChem BioAssay (NCI).
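In this assay, cells in 96-well plates receive the compound at five concentrations for 48 hours. Endpoints are linearly interpolated between the surrounding concentrations. Definition used: TGI = concentration required for complete inhibition of growth.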

Tests used:
Experiment in all cases: NCI anticancer screen, dose series, 48 h
[1] = test system: RXF 393 renal
[2] = test system: SK-MEL-5 melanoma
[3] = test system: OVCAR-3 ovarian
[4] = test system: UACC-257 melanoma
[5] = test system: SK-MEL-28 melanoma
[6] = test system: OVCAR-4 ovarian
[7] = test system: T-47D breast
[8] = test system: NCI-H460 lung
[9] = test system: U251 CNS
[10] = test system: HCT-116 colon
[11] = test system: K-562 leukemia
[12] = test system: OVCAR-8 ovarian
[13] = test system: HS 578T breast
[14] = test system: UO-31 renal
[15] = test system: SF-295 CNS
[16] = test system: IGROV1 ovarian
[17] = test system: OVCAR-5 ovarian
[18] = test system: MOLT-4 leukemia
[19] = test system: SNB-19 CNS
[20] = test system: NCI-H226 lung

SMILES	TGI [1] [µM]	TGI [2] [µM]	TGI [3] [µM]	TGI [4] [µM]	TGI [5] [µM]	TGI [6] [µM]	TGI [7] [µM]	TGI [8] [µM]	TGI [9] [µM]	TGI [10] [µM]	TGI [11] [µM]	TGI [12] [µM]	TGI [13] [µM]	TGI [14] [µM]	TGI [15] [µM]	TGI [16] [µM]	TGI [17] [µM]	TGI [18] [µM]	TGI [19] [µM]	TGI [20] [µM]
O=C(O)c1ccccc1CC1Cc2ccccc2C1=O (stereo not given)	> 100	> 100	> 100	> 100	> 100	> 100	> 100	> 100	> 100	> 100	> 100	> 100	> 100	> 100	> 100	> 100	> 100	> 100	> 100	> 100
CCC1(CC)C(=O)NN(C(=O)c2ccccc2)C1=O	> 100	> 100	> 100	> 100	> 100	> 100	> 100	> 100	> 100	> 100	> 100	> 100	> 100	> 100	> 100	> 100	> 100	> 100	> 100	> 100
CC1(C)CCCC2OC2CCC(C)(C)C1=O (stereo not given)	> 100	> 100	> 100	> 100	> 100	> 100	> 100	> 100	> 100	> 100	> 100	> 100	> 100	> 100	> 100	> 100	> 100	> 100	> 100	> 100
Cc1c(S(=O)(=O)c2ccccc2)c(N)n(CCN(C)C)c1C	> 100	> 100	> 100	> 100	> 100	> 100	> 100	> 100	> 100	> 100	> 100	> 100	> 100	> 100	> 100	> 100	> 100	> 100	> 100	> 100
CCN(CC)CCn1c(=O)c2cccnc2n2c3c(=O)n(C)c(=O)n(C)c3nc12	> 100	> 100	> 100	> 100	> 100	> 100	> 100	> 100	> 100	> 100	> 100	> 100	> 100	> 100	> 100	> 100	> 100	> 100	> 100	> 100
CC1OC(OC2C(OC(=O)[C@]34CCC(C)(C)C[C@H]3C3=CC[C@@H]5[C@@]6(C)CC[C@H](OC7OC(C(=O)O)C(O)C(O)C7O)C(C)(C)[C@@H]6CC[C@@]5(C)[C@]3(C)C[C@H]4O)OCC(O)C2O)C(O)C(OC2OCC(O)(CO)C2O)C1OC1OCC(O)C(O)C1O (stereo not given in full)	31.5	28.1	27.4	26.6	15.2	22.7	26.4	36.5	21.4	19.8	35.8	33.4	40	8.42	26.9	33.3	22.9	38.8	23.8	28.3
CN(C)c1ccc(C(=N/N=C2\C(=O)Nc3ccccc32)c2ccc(N(C)C)cc2)cc1	1.23	13.9	3.63	> 83.8	> 57.2	> 32.6	35.5	11.2	15.5	12.3	39.6	22.4	> 21.9	30.8	4.13	9.07	> 54	52.7	> 100	43.3
NS(=O)(=O)c1cc(Cl)c(NC(=S)NC(=O)Nc2ccc(Cl)c(Cl)c2)c(Cl)c1	> 100	40.3	> 100	> 100	> 100	> 100	> 100	> 100	> 100	> 100	> 100	> 100	> 100	> 100	> 100	> 100	> 100	> 100	> 100	> 100
CN1CSC(=S)N(c2c3ccccc3nc3ccc(Br)cc23)C1	24.7	26.2	33.3	24.8	35.2	25.7	38.3	13.6	20.4	15.7	> 32.4	> 51.2	47.2	22.4	21.2	25.1	31.6	5.87	26	37
Cc1ccc(S(=O)(=O)N/N=C/C2(c3ccccc3)c3ccccc3-c3ccccc32)cc1	27.3	23.9	20.8	31.4	28.6	24.3	44	18.2	26.7	20.3	> 100	31.5	39.3	18.6	16.1	23.5	25.1	> 100	73	34.1
Cc1cccc2c1CC1(C2)Cc2c(C)cccc2C1=O (stereo not given)	38.1	33.7	51.1	63.5	56.5	> 100	> 100	83.2	65.4	35.7	70.3	> 100	> 100	> 100	68.8	> 100	> 100	30.2	> 100	61
CC1=C[C@@H]2Cc3nc4cc(Cl)ccc4c(N)c3[C@H](C1)C2	18.3	11.2	24.2	4.9	25.1	18.2	37.4	23.1	37.7	14.5	14.3	38.9	9.75	17.7	20	8.14	17.3	11.6	24	32.5
O=C(O)/C=C(/C(=O)O)C12CCN3CC4=CCOC5CC(=O)NC1C5C4CC32 (stereo not given)	> 100	> 100	> 100	> 100	> 100	> 100	> 100	> 100	> 100	> 100	> 100	> 100	> 100	> 100	> 100	> 100	> 100	> 100	> 100	> 100
Cc1ccc(-c2[nH]c(=O)n(C3OC(CO)C(O)C(O)C3O)c(=O)c2C#N)cc1 (stereo not given)	> 100	> 100	> 100	> 100	> 100	> 100	> 100	> 100	> 100	> 100	> 100	> 100	> 100	> 100	> 100	> 100	> 100	> 100	> 100	> 100
CS(=O)c1ncc2c(n1)-c1ccccc1OC2 (stereo not given)	> 100	> 100	> 100	> 100	> 100	> 100	> 100	> 100	> 100	> 100	> 100	> 100	> 100	> 100	> 100	> 100	> 100	> 100	> 100	> 100
COc1cc(C2c3cc4c(cc3OC(NN)C2C)OCO4)cc(OC)c1OC (stereo not given)	> 100	> 26.8	1.04	> 100	> 100	> 100	> 100	> 100	16.2	> 28.2	> 31.1	> 100	> 100	> 100	> 22.7	> 100	> 100	> 100	> 100	> 24.4
C=CCSc1nnc2cc(CN3CCCC3)c(-c3ccc(Cl)cc3)nn12	31.5	31.1	36	32.3	47.8	48	71.4	36.1	31.2	28.5	> 100	57.1	> 100	30.4	53.7	44.3	41.5	> 100	71.7	26.7
